≈ marks a conversion by molar mass, not a printed value. Starred links: 1 amine or outer side, 2 acyl side, 3 side chain; linkers in the order of their positions; H or OH if unused. Non-standard residues stand in square brackets, D forms with d. Residues, ends and D or L forms follow the SMILES beside them. Ile(ψThz) = CC[C@H](C)[C@H](N[*:1])c1nc(C(=O)[*:2])cs1; LeuThz(4-CO) = CC(C)C[C@H](N[*:1])c1nc(C(=O)[*:2])cs1; ValThz = CC(C)[C@H](N[*:1])c1nc(C(=O)[*:2])cs1; NMeF = CN[C@@H](Cc1ccccc1)C(=O)O; NMeI = CC[C@H](C)[C@H](NC)C(=O)O; Tle = CC(C)(C)[C@H](N)C(=O)O; NMeA = CN[C@@H](C)C(=O)O
Tests used:
[1] = Permeability of the compound at pH 7.4 at 10 uM after 10 hrs by LC-MS based PAMPA
[2] = Kinetic solubility of the compound in PBS at pH 7.4
physchem = conditions: PBS
[3] = Retention time of the compound in isocratic acetonitrile/water by HPLC analysis; conditions: buffer
[4] = Apparent permeability from apical to basolateral side in human Caco2 cells at 10 uM after 2 hrs by LC-MS/MS analysis; conditions: Caco-2

SMILES	Papp at 10 h, 10 µM [1] [×10⁻⁶ cm/s]	solubility kinetic [2] [µM]	solubility thermodynamic at 48 h (physchem) [µM]	Retention_time [3] [min]	Papp A→B at 2 h, 10 µM [4] [×10⁻⁶ cm/s]
CC[C@H](C)[C@@H]1NC(=O)[C@@H]2CCCN2C(=O)[C@H](Cc2ccccc2)NC(=O)[C@H](C)NC(=O)c2csc(n2)[C@H](CC(C)C)NC(=O)[C@@H]2CCCN2C1=O (cyclo(AFPIP[LeuThz(4-CO)]))	5.6	182 (≈ 131 µg/mL)	35 (≈ 25.3 µg/mL)	2.87	1.3
CC[C@H](C)[C@@H]1NC(=O)[C@@H]2CCCN2C(=O)[C@H](Cc2ccccc2)NC(=O)[C@H](C)NC(=O)c2csc(n2)[C@H](C(C)C)NC(=O)[C@@H]2CCCN2C1=O (cyclo(AFPIP[ValThz]))	4.8	285 (≈ 202 µg/mL)	205 (≈ 145 µg/mL)	2.03	3.7
CC[C@H](C)[C@@H]1NC(=O)[C@@H]2CCCN2C(=O)[C@H](Cc2ccccc2)N(C)C(=O)[C@H](C)NC(=O)c2csc(n2)[C@H]([C@@H](C)CC)NC(=O)[C@@H]2CCCN2C1=O (cyclo(A[NMeF]PIP[Ile(ψThz)]))	11	105 (≈ 77.3 µg/mL)	172 (≈ 127 µg/mL)	3.03	7.4
CC[C@H](C)[C@@H]1NC(=O)[C@@H]2CCCN2C(=O)[C@H]([C@@H](C)O)NC(=O)[C@@H]2CCCN2C(=O)[C@H](Cc2ccccc2)NC(=O)[C@H](C)NC(=O)c2csc1n2 (cyclo(AFPTP[Ile(ψThz)]))	0.2	285 (≈ 202 µg/mL)		1.02	0.4
CC[C@H](C)[C@@H]1NC(=O)[C@@H]2CCCN2C(=O)[C@H](Cc2ccccc2)NC(=O)[C@H](C)NC(=O)c2csc(n2)[C@H]([C@@H](C)CC)NC(=O)[C@@H]2CCCN2C1=O (cyclo(AFPIP[Ile(ψThz)]))	5.3	147 (≈ 106 µg/mL)	107 (≈ 77.2 µg/mL)	2.77	1.3
CC[C@H](C)[C@@H]1NC(=O)[C@@H]2CCCN2C(=O)[C@H](Cc2ccccc2)NC(=O)[C@H](C)N(C)C(=O)c2csc(n2)[C@H]([C@@H](C)CC)NC(=O)[C@@H]2CCCN2C1=O (cyclo(FPIP[Ile(ψThz)][NMeA]))	0.5	333 (≈ 245 µg/mL)	801 (≈ 589 µg/mL)	1.48	0.2
CC[C@H](C)[C@@H]1NC(=O)[C@@H]2CCCN2C(=O)[C@H](Cc2ccccc2)N(C)C(=O)[C@H](CC(C)C)NC(=O)c2csc(n2)[C@H]([C@@H](C)CC)NC(=O)[C@@H]2CCCN2C1=O (cyclo(IP[Ile(ψThz)]L[NMeF]P))	17.2	133 (≈ 103 µg/mL)	111 (≈ 86.4 µg/mL)	5.06	19.3
CC[C@H](C)[C@@H]1NC(=O)[C@@H]2CCCN2C(=O)[C@H]([C@@H](C)CC)N(C)C(=O)[C@@H]2CCCN2C(=O)[C@H](Cc2ccccc2)NC(=O)[C@H](C)NC(=O)c2csc1n2 (cyclo(AFP[NMeI]P[Ile(ψThz)]))	1.3			1.79	0.4
CC[C@H](C)[C@@H]1NC(=O)[C@@H]2CCCN2C(=O)[C@H](C(C)C)NC(=O)[C@@H]2CCCN2C(=O)[C@H](Cc2ccccc2)N(C)C(=O)[C@H](C)NC(=O)c2csc1n2 (cyclo(A[NMeF]PVP[Ile(ψThz)]))	9.1	133 (≈ 96 µg/mL)	296 (≈ 214 µg/mL)	2.24	6.8
CC(C)[C@@H]1NC(=O)c2csc(n2)[C@H](C(C)C)NC(=O)[C@@H]2CCCN2C(=O)[C@H](C(C)C)NC(=O)[C@@H]2CCCN2C(=O)[C@H](Cc2ccccc2)NC1=O (cyclo(FPVP[ValThz]V))	4.7	105 (≈ 75.8 µg/mL)	148 (≈ 107 µg/mL)	2.81	2.2
CC[C@H](C)[C@@H]1NC(=O)c2csc(n2)[C@H]([C@@H](C)CC)NC(=O)[C@@H]2CCCN2C(=O)[C@H]([C@@H](C)CC)NC(=O)[C@@H]2CCCN2C(=O)[C@H](Cc2ccccc2)NC1=O (cyclo(FPIP[Ile(ψThz)]I))	6.1	39 (≈ 29.8 µg/mL)	6 (≈ 4.58 µg/mL)	7.86	9.6
CC[C@H](C)[C@@H]1NC(=O)[C@@H]2CCCN2C(=O)[C@H](Cc2ccccc2)NC(=O)[C@H](CC(C)C)NC(=O)c2csc(n2)[C@H]([C@@H](C)CC)NC(=O)[C@@H]2CCCN2C1=O (cyclo(FPIP[Ile(ψThz)]L))	4.7	39 (≈ 29.8 µg/mL)	10 (≈ 7.64 µg/mL)	9.13	10.9
CC[C@H](C)[C@@H]1NC(=O)[C@@H]2CCCN2C(=O)[C@H](Cc2ccccc2)NC(=O)[C@H](C(C)(C)C)NC(=O)c2csc(n2)[C@H]([C@@H](C)CC)NC(=O)[C@@H]2CCCN2C1=O (cyclo(FPIP[Ile(ψThz)][Tle]))				8.72	
CC[C@H](C)[C@@H]1NC(=O)c2csc(n2)[C@H]([C@@H](C)CC)NC(=O)[C@@H]2CCCN2C(=O)[C@H]([C@@H](C)CC)NC(=O)[C@@H]2CCCN2C(=O)[C@H](Cc2ccccc2)N(C)C1=O (cyclo(I[NMeF]PIP[Ile(ψThz)]))	1.5	21 (≈ 16.3 µg/mL)	12 (≈ 9.34 µg/mL)	10	21.2
CC[C@H](C)[C@@H]1NC(=O)[C@@H]2CCCN2C(=O)[C@H](Cc2ccccc2)N(C)C(=O)[C@H](C(C)(C)C)NC(=O)c2csc(n2)[C@H]([C@@H](C)CC)NC(=O)[C@@H]2CCCN2C1=O (cyclo(IP[Ile(ψThz)][Tle][NMeF]P))				10.94	
CC[C@H](C)[C@@H]1NC(=O)[C@@H]2CCCN2C(=O)[C@H](C(C)C)NC(=O)[C@@H]2CCCN2C(=O)[C@H](Cc2ccccc2)NC(=O)[C@H](C)NC(=O)c2csc1n2 (cyclo(AFPVP[Ile(ψThz)]))	4.9	182 (≈ 129 µg/mL)	236 (≈ 167 µg/mL)	1.97	0.3
CC[C@H](C)[C@@H]1NC(=O)[C@@H]2CCCN2C(=O)[C@H](CC(C)C)NC(=O)[C@@H]2CCCN2C(=O)[C@H](Cc2ccccc2)NC(=O)[C@H](C)NC(=O)c2csc1n2 (cyclo(AFPLP[Ile(ψThz)]))	5.3	133 (≈ 96 µg/mL)	122 (≈ 88.1 µg/mL)	2.19	0.2

— ChEMBL document CHEMBL3616364, “Going Out on a Limb: Delineating The Effects of β-Branching, N-Methylation, and Side Chain Size on the Passive Permeability, Solubility, and Flexibility of Sanguinamide A Analogues” (J Med Chem, 2015)
